# Assay results as given in patent US20240059677A1, “SUBSTITUTED PYRIMIDINE DERIVATIVES AS NICOTINIC ACETYLCHOLINESTERASE RECEPTOR ALPHA 6 MODULATOR” (priority 2020, published 2024).
# Molecular target: T1, human nAChRα6-α3 chimera, in addition to β2 and β3^V273S subunits (Homo sapiens, UniProt P32297+Q15825)
# T1 construct: expressed in transfected cells
# Experiment: fluorescence-based calcium assay: inhibition of nicotine stimulated nAChRα6 activity (FLIPR)
# Details: HEK cell line stably expressing the receptor; 10 min pre-incubation, nicotine EC80; 10-point curve, duplicate wells; read-out: IC50
# Procedure, shortened: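 HEK cells stably expressing the human α6-α3 chimera with β2 and β3^V273S were loaded with calcium dye at 30° C. Compounds were pre-incubated for 10 min before nicotine at EC80, and the fluorescence change was read on a FLIPR. Ten-point half-log concentration-response, duplicate wells.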
# T1 sequence (Q05901 25-458 V273S): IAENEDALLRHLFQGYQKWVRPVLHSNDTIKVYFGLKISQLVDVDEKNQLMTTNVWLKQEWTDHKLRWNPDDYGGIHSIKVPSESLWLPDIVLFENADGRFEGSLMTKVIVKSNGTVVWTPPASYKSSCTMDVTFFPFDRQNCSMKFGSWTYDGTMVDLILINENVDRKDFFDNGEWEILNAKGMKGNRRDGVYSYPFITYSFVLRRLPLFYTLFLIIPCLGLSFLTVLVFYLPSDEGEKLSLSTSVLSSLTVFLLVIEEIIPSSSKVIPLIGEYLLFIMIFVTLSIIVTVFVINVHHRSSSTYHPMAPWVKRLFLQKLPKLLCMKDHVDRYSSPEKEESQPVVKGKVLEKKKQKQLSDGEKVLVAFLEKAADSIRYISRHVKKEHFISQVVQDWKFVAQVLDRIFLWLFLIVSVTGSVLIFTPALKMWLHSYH
# T1 sequence (P17787 26-502, stated change not applied, further chain): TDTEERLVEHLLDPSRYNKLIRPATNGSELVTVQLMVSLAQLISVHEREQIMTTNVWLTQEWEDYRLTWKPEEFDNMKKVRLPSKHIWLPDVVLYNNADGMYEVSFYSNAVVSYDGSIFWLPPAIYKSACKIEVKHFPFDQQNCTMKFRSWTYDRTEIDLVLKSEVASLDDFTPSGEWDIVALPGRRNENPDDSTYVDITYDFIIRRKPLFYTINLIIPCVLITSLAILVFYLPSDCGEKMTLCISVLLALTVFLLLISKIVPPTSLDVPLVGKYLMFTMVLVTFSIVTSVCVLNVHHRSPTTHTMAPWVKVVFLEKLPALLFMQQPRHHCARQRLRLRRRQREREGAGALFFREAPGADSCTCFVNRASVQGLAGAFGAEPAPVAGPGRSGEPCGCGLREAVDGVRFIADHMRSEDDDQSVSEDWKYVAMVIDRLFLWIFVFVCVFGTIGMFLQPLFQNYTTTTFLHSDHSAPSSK
# T1 sequence (Q15825+P32297 fused with the stated changes): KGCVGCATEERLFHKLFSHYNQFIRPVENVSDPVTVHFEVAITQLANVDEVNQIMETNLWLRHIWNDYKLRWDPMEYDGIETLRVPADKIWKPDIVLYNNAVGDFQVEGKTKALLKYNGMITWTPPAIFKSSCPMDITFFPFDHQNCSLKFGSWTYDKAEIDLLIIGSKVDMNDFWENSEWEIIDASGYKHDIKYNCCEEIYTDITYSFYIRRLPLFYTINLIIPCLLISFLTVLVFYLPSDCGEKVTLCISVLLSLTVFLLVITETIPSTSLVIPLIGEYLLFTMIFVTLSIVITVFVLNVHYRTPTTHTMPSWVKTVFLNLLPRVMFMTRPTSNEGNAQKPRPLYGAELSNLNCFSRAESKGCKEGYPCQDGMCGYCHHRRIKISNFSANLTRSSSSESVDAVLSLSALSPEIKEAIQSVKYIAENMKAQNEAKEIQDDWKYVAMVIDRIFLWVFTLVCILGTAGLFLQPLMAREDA
row,SMILES,IC50
1,"COc1ccc(-c2cnc(NCC3CCCN(C)C3)nc2C)c(F)c1 (stereo not drawn) [Example 30, 5-(2-fluoro-4-methoxyphenyl)-4-methyl-N-((1-methylpiperidin-3-yl)methyl) pyrimidin-2-amine]",0.082 µM
2,"COc1ccc(-c2cnc(NCC3CCN(C)C3)nc2C#N)c(F)c1 (stereo not drawn) [Example 31, 5-(2-fluoro-4-methoxyphenyl)-2-(((1-methylpyrrolidin-3-yl)methyl)amino) pyrimidine-4-carbonitrile]",0.082 µM
3,"COc1ccc(-c2cnc(NCC3COCCN3C)nc2C)c(F)c1 (stereo not drawn) [Example 32, 5-(2-fluoro-4-methoxyphenyl)-4-methyl-N-((4-methylmorpholin-3-yl)methyl)pyrimidin-2-amine]",0.099 µM
4,"COc1ccc(F)c(-c2cnc(NCC3CCCCN3C)nc2C)c1 (stereo not drawn) [Example 33, 5-(2-fluoro-5-methoxyphenyl)-4-methyl-N-((1-methylpiperidin-2-yl)methyl) pyrimidin-2-amine]",0.045 µM
5,"COc1ccc(F)c(-c2cnc(NCC3CCCN(C)C3)nc2C)c1 (stereo not drawn) [Example 34, 5-(2-fluoro-5-methoxyphenyl)-4-methyl-N-((1-methylpiperidin-3-yl)methyl) pyrimidin-2-amine]",0.13 µM
6,"COc1ccc(-c2cnc(NCC3CN(C)CCO3)nc2C)c(F)c1 (stereo not drawn) [Example 36, 5-(2-fluoro-4-methoxyphenyl)-4-methyl-N-((4-methylmorpholin-2-yl)methyl)pyrimidin-2-amine]",0.14 µM
7,"COc1ccc(-c2cnc(NCC3CCN(C)C3)nc2C2CC2)c(F)c1 (stereo not drawn) [Example 37, 4-cyclopropyl-5-(2-fluoro-4-methoxyphenyl)-N-((1-methylpyrrolidin-3-yl)methyl)pyrimidin-2-amine]",0.103 µM
8,"COc1ccc(-c2cnc(NC3CCN(C)CC3)nc2C)c(F)c1 [Example 40, 5-(2-fluoro-4-methoxyphenyl)-4-methyl-N-(1-methylpiperidin-4-yl) pyrimidin-2-amine]",0.068 µM
9,"COc1ccc(-c2cnc(NC3CCN(C(C)C)CC3)nc2C)c(F)c1 [Example 41, 5-(2-fluoro-4-methoxyphenyl)-N-(1-isopropylpiperidin-4-yl)-4-methyl-pyrimidin-2-amine]",0.081 µM
10,"Cc1nc(NCc2cccnc2)ncc1-c1ccc(F)cc1F [Example 42, 5-(2,4-difluorophenyl)-4-methyl-N-(pyridin-3-ylmethyl)pyrimidin-2-amine]",1.2 µM
11,"COc1ccc(-c2cnc(NC3CCC(N(C)C)C3)nc2C(F)(F)F)c(F)c1 (stereo not drawn) [Example 43, N^1-(5-(2-fluoro-4-methoxyphenyl)-4-(trifluoromethyl)pyrimidin-2-yl)-N^3,N^3-dimethylcyclopentane-1,3-diamine]",0.178 µM
12,"COc1ccc(-c2cnc(NC3CCOCC3)nc2C)c(F)c1 [Example 45, 5-(2-fluoro-4-methoxyphenyl)-4-methyl-N-(tetrahydro-2H-pyran-4-yl) pyrimidin-2-amine]",1.31 µM
13,"COc1ccc(-c2cnc(NC3CCCOC3)nc2C)c(F)c1 (stereo not drawn) [Example 46, 5-(2-fluoro-4-methoxyphenyl)-4-methyl-N-(tetrahydro-2H-pyran-3-yl) pyrimidin-2-amine]",2.18 µM
14,"COc1ccc(-c2cnc(NCC3CCCO3)nc2C)c(Cl)c1 (stereo not drawn) [Example 47, 5-(2-chloro-4-methoxyphenyl)-4-methyl-N-((tetrahydrofuran-2-yl)methyl) pyrimidin-2-amine]",1.25 µM
15,"COc1ccc(-c2cnc(NC3CCCN(C(C)C)C3)nc2C)c(F)c1 (stereo not drawn) [Example 48, 5-(2-fluoro-4-methoxyphenyl)-N-(1-isopropylpiperidin-3-yl)-4-methyl-pyrimidin-2-amine]",0.083 µM
16,"COc1ccc(-c2cnc(NCC3CCCN(C(C)C)C3)nc2C)c(F)c1 (stereo not drawn) [Example 49, 5-(2-fluoro-4-methoxyphenyl)-N-((1-isopropylpiperidin-3-yl)methyl)-4-methyl-pyrimidin-2-amine]",0.069 µM
17,"COc1ccc(-c2cnc(NCC3CCCCN3C(C)C)nc2C)c(F)c1 (stereo not drawn) [Example 50, 5-(2-fluoro-4-methoxyphenyl)-N-((1-isopropylpiperidin-2-yl)methyl)-4-methyl-pyrimidin-2-amine]",0.103 µM
18,"COc1ccc(-c2cnc(NCC3CCCOC3)nc2C)c(F)c1 (stereo not drawn) [Example 51, 5-(2-fluoro-4-methoxyphenyl)-4-methyl-N-((tetrahydro-2H-pyran-3-yl)methyl)pyrimidin-2-amine]",1.1 µM
19,"Cc1nc(NC2CCC(S(C)(=O)=O)C2)ncc1-c1ccc(F)cc1F (stereo not drawn) [Example 52, 5-(2,4-difluorophenyl)-4-methyl-N-(3-(methylsulfonyl)cyclopentyl) pyrimidin-2-amine]",1.53 µM
20,"Cc1nc(NC2CCCN(CC(F)(F)F)C2)ncc1-c1ccc(F)cc1F (stereo not drawn) [Example 60, 5-(2,4-difluorophenyl)-4-methyl-N-(1-(2,2,2-trifluoroethyl)piperidin-3-yl) pyrimidin-2-amine]",1.18 µM
21,"COc1ccc(F)c(-c2cnc(NCC3COCCN3C)nc2C)c1 (stereo not drawn) [Example 61, 5-(2-fluoro-5-methoxyphenyl)-4-methyl-N-((4-methylmorpholin-3-yl)methyl)pyrimidin-2-amine]",0.533 µM
22,"COc1ccc(-c2cnc(NCC3COCCN3C)nc2C)c(Cl)c1 (stereo not drawn) [Example 62, 5-(2-chloro-4-methoxyphenyl)-4-methyl-N-((4-methylmorpholin-3-yl)methyl)pyrimidin-2-amine]",0.064 µM
23,"COc1ccc(-c2cnc(NCc3cncn3C)nc2C)c(Cl)c1 [Example 63, 5-(2-chloro-4-methoxyphenyl)-4-methyl-N-((1-methyl-1H-imidazol-5-yl)methyl)pyrimidin-2-amine]",0.141 µM
24,"CN1CCC(Nc2ncc(-c3ccc(F)cc3F)c(C#N)n2)CC1 [Example 66, 5-(2,4-difluorophenyl)-2-((1-methylpiperidin-4-yl)amino)pyrimidine-4-carbonitrile]",0.094 µM
25,"Cc1nc(NC2CCN(C(C)C)CC2)ncc1-c1ccc(F)cc1F [Example 67, 5-(2,4-difluorophenyl)-N-(1-isopropylpiperidin-4-yl)-4-methyl-pyrimidin-2-amine]",0.066 µM
26,"COc1ccc(-c2c(C)nc(NCC3CCCN3C)nc2C)c(F)c1 (stereo not drawn) [Example 70, 5-(2-fluoro-4-methoxyphenyl)-4,6-dimethyl-N-((1-methylpyrrolidin-2-yl)methyl)pyrimidin-2-amine]",0.072 µM
27,"Cc1nc(NC2CCN(C)CC2)ncc1-c1ccc(F)cc1F [Example 71, 5-(2,4-difluorophenyl)-4-methyl-N-(1-methylpiperidin-4-yl)pyrimidin-2-amine]",0.054 µM
28,"Cc1nc(NC2CCCN(C(C)C)C2)ncc1-c1ccc(F)cc1F (stereo not drawn) [Example 72, 5-(2,4-difluorophenyl)-N-(1-isopropylpiperidin-3-yl)-4-methyl-pyrimidin-2-amine]",0.052 µM
29,"COc1ccc(-c2c(C)nc(NCC3CCCN3C)nc2OC)c(F)c1 (stereo not drawn) [Example 75, 5-(2-fluoro-4-methoxyphenyl)-4-methoxy-6-methyl-N-((1-methylpyrrolidin-2-yl)methyl)pyrimidin-2-amine]",0.094 µM

# Same assay, conditions: IC50 (μM), HEK cell line stably expressing the receptor; 10 min pre-incubation, nicotine EC80; 10-point curve, duplicate wells
row,SMILES,IC50
1,"COc1ccc(-c2cnc(NCC3CCCCN3C)nc2C)c(Cl)c1 (stereo not drawn) [Example 35, 5-(2-chloro-4-methoxyphenyl)-4-methyl-N-((1-methylpiperidin-2-yl)methyl) pyrimidin-2-amine]",0.029 µM
